# Results reported in ChEMBL document CHEMBL1153785, “Antimalarial activity of azafluorenone alkaloids from the Australian tree Mitrephora diversifolia” (J Nat Prod, 2009).
# Key:
# [1] = system: Plasmodium falciparum; assay: Antimalarial activity against chloroquine-sensitive Plasmodium falciparum 3D7 after 72 hrs by DAPI staining method; assay type: functional, organism-based; settings: 3D7, 72 h
# [2] = Cytotoxicity against human HEK293 cells at 120 uM after 72 hrs by Alamar blue assay; assay type: cell-based; settings: read-out: GI
# [3] = system: Plasmodium falciparum; assay: Antimalarial activity against chloroquine-resistant Plasmodium falciparum Dd2 after 72 hrs by DAPI staining method; settings: Dd2, 72 h
# [4] = system: HEK293; assay: Cytotoxicity against human HEK293 cells up to 120 uM after 72 hrs by Alamar blue assay; assay type: cell-based; settings: hek293, 72 h
# [5] = system: Plasmodium falciparum; assay: Antimalarial activity against chloroquine-resistant Plasmodium falciparum Dd2 at 120 uM after 72 hrs by DAPI staining method
# [6] = system: Plasmodium falciparum; assay: Antimalarial activity against chloroquine-sensitive Plasmodium falciparum 3D7 at 120 uM after 72 hrs by DAPI staining method; assay type: functional
IC50 [1],IC50 [3],SMILES,"inhibition at 72 h, 120 µM [2]",Activity [4],Activity [5],Activity [6]
9.9 µM,11.4 µM,COc1ccc2c(c1O)-c1nccc(C)c1C2=O,96%,,,
,,COc1cc(O)c2c(c1O)-c1nccc(C)c1C2=O,,Non-toxic,80%,87%
